Activity calls are given as the source filed them. No cut-off for these calls is given here.
Experiments:
Rattus norvegicus [1] = test: Behavioral effect in Lister hooded rat assessed as reversal of scopolamine-induced working memory impairment at 0.1 mg/kg, po after 24 seconds by delayed match to position task method; assay type: functional, organism-based; parameters: dose 0.1 mg/kg
Mus musculus = species: Mus musculus; test: Anticonvulsive activity in mouse audiogenic seizure model; assay type: functional, organism-based
[2] = Lipophilicity, log D at pH 7.4; assay type: physicochemical; conditions: buffer
[3] = target: T1, GABA-A receptor; alpha-5/beta-3/gamma-2 (Homo sapiens, UniProt P18507+P28472+P31644); test: Displacement of [3H]Flumazenil from cloned human GABA alpha-5-beta-3-gamma-2 receptor expressed in HEK293 cells; assay type: cell-based
T1 sequence (P18507 whole entry): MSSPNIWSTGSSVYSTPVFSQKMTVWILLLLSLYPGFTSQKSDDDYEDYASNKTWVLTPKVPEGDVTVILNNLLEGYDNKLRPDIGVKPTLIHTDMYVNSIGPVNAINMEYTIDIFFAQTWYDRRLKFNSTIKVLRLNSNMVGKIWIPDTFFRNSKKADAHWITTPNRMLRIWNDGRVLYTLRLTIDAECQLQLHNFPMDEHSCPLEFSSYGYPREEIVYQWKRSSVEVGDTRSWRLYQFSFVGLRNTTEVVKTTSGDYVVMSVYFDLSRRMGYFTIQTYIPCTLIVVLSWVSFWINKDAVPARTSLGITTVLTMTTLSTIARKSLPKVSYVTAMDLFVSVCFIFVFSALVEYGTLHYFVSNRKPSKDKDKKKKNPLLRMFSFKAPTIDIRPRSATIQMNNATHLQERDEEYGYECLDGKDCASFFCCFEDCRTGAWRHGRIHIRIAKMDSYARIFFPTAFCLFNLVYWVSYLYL
T1 sequence (P28472 whole entry): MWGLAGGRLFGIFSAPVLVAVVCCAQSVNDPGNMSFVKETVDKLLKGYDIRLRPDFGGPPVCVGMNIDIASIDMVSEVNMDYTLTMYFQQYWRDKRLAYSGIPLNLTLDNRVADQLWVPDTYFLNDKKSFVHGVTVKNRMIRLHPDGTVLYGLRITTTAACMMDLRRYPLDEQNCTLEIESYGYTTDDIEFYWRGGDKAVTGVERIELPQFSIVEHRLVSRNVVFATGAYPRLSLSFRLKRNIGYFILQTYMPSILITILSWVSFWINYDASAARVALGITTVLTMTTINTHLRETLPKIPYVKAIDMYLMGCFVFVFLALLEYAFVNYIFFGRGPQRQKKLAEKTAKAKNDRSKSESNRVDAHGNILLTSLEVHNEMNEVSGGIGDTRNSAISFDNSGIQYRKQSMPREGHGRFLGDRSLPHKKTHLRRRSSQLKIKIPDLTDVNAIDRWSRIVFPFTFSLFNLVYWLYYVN
T1 sequence (P31644 whole entry): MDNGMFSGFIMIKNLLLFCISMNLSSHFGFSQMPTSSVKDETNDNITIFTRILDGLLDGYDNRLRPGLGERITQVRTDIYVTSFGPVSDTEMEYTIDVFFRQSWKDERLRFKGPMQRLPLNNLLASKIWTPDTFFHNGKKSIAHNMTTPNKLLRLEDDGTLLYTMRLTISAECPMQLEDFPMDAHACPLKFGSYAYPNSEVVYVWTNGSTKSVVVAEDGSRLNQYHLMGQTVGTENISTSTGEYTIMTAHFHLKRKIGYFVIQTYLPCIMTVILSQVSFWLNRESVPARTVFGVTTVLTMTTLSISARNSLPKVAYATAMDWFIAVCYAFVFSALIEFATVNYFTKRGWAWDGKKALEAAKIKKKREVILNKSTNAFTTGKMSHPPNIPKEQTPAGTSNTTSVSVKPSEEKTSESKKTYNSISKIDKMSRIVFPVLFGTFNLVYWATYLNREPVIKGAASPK

Rattus norvegicus [4] = test: Behavioral effect in Lister hooded rat assessed as reversal of scopolamine-induced working memory impairment at 0.3 to 1 mg/kg, po by delayed match to position task method; assay type: functional, organism-based
Rattus norvegicus [5] = test: Behavioral effect in Lister hooded rat assessed as inhibition of diazepam-induced spartial learning impairment at 1 to 10 mg/kg, po by delayed match to position task method; assay type: functional, organism-based
[6] = Clearance in rat; assay type: ADME, organism-based; conditions: in vivo
[7] = target: Gamma-aminobutyric acid receptor subunit alpha-3 (Rattus norvegicus) (UniProt P20236); test: Inverse agonist activity at rat GABA alpha-3-beta-3-gamma-2 receptor expressed in HEK293 cells by electrophysiology assay relative to GABA; assay type: functional, cell-based
Rattus norvegicus [8] = species: Rattus norvegicus; test: Anxiogenic activity in Lister hooded rat by elevated plus maze test; assay type: functional, organism-based
[9] = target: T2, GABA-A receptor; alpha-2/beta-3/gamma-2 (Homo sapiens, UniProt P18507+P28472+P47869); test: Displacement of [3H]Flumazenil from cloned human GABA alpha-2-beta-3-gamma-2 receptor expressed in HEK293 cells; assay type: cell-based
T2 sequence (P18507 whole entry): T1 sequence (P18507 whole entry)
T2 sequence (P28472 whole entry): T1 sequence (P28472 whole entry)
T2 sequence (P47869 whole entry): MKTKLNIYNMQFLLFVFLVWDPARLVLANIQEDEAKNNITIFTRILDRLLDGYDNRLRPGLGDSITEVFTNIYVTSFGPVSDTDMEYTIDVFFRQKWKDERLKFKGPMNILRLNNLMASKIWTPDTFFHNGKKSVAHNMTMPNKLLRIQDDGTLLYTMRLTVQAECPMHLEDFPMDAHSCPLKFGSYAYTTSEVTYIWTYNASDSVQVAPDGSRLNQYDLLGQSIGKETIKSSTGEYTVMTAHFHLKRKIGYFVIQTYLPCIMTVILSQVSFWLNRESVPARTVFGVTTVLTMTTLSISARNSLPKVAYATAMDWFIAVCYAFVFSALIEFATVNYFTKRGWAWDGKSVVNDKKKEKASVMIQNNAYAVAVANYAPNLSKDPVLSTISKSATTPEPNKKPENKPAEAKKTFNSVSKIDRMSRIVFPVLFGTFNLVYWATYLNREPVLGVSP

Rattus norvegicus [10] = species: Rattus norvegicus; test: Anxiogenic activity in Lister hooded rat by social approach avoidance test; assay type: functional, organism-based
Cynomolgus monkey = test: Behavioral effect in cynomolgus monkey assessed as improved executive function at 3 to10 mg/kg, po by object retrieval task method; assay type: functional, organism-based; conditions: Macaca fascicularis
[11] = target: GABA-A receptor; alpha-5/beta-3/gamma-2 (Homo sapiens) (UniProt P18507+P28472+P31644); test: Inverse agonist activity at human GABA alpha-5-beta-3-gamma-2 receptor expressed in Xenopus laevis oocyts by electrophysiology assay relative to GABA; assay type: functional
Rattus norvegicus [12] = test: Behavioral effect in Lister hooded rat assessed as reversal of scopolamine-induced working memory impairment at 1 mg/kg, po after 16 seconds by delayed match to position task method; assay type: functional, organism-based; parameters: dose 1 mg/kg
Rattus norvegicus [13] = test: Behavioral effect in Lister hooded rat assessed as reversal of scopolamine-induced working memory impairment at 1 mg/kg, po after 24 seconds by delayed match to position task method; assay type: functional, organism-based; parameters: dose 1 mg/kg
Rattus norvegicus [14] = test: Behavioral effect in Lister hooded rat assessed as reversal of scopolamine-induced working memory impairment at 1 mg/kg, po by delayed match to position task method; assay type: functional, organism-based; parameters: dose 1 mg/kg

Sequence of Gamma-aminobutyric acid receptor subunit alpha-3 (Rattus norvegicus) (P20236 whole entry): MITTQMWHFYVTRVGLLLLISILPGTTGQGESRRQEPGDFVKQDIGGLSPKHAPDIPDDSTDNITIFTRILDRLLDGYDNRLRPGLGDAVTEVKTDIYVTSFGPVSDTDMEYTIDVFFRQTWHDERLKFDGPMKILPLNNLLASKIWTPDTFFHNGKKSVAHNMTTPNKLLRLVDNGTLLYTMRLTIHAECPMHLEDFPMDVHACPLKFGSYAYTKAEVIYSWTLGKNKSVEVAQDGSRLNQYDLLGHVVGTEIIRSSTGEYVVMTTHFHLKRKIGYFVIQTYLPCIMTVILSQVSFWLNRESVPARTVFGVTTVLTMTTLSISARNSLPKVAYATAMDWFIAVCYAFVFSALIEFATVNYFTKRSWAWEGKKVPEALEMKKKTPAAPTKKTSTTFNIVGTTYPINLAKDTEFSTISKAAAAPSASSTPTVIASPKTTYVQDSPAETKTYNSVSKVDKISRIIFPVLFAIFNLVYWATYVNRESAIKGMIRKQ

Row | SMILES | Activity (Rattus norvegicus [1]) | Activity (Mus musculus) | logD [2] | Ki [3] [nM] | Activity (Rattus norvegicus [4]) | Activity (Rattus norvegicus [5]) | clearance [6] [mL/min/kg] | Efficacy [7] [%] | Activity (Rattus norvegicus [8]) | Ki [9] [nM] | Activity (Rattus norvegicus [10]) | Activity (Cynomolgus monkey) | Activity [11] | Activity (Rattus norvegicus [12]) | Activity (Rattus norvegicus [13]) | Activity (Rattus norvegicus [14])
1 | FC(F)c1ncn2c1Cn1ncnc1-c1cc(Br)ccc1-2 | Active | inactive | 1.9 | 4.6 | Active | Active | 2.9 | 2 | inactive | 185 | inactive | Active | – | – | – | –
2 | Clc1ccc2c(c1)-c1ncnn1Cc1c(Cl)ncn1-2 | – | – | 1.8 | 2 | – | – | 12.4 | -11 | – | 24 | – | – | Active | Active | Active | inactive
3 | Cc1ncn2c1Cn1ncnc1-c1cc(Cl)ccc1-2 | – | – | 2 | 3 | – | – | 7.2 | 4 | – | 219 | – | – | – | – | – | –
4 | Clc1ncn2c1Cn1ncnc1-c1cc(Br)ccc1-2 | – | – | 2.2 | 1.4 | – | – | 9.7 | -14 | – | 24 | – | – | – | – | – | –
